Test results reported in patent US20120283228A1, “2alpha-Methyl and 2beta-Methyl Analogs of 19,26-Dinor-1alpha,25-Dihydroxyvitamin D3 and Their Uses” (WISCONSIN ALUMNI RESEARCH FOUNDATION, priority 2011, published 2012).
Entries after “also recorded” stand apart in the source; their conditions may differ. Where two headings read alike, the source gives them in different places.

Legend:
[1] = system: Human promyelocytic leukemia (HL60) cells; assay: HL-60 differentiation (nitro blue tetrazolium reduction); format: cell-based; settings: for EC50: HL-60 cells, read-out: EC50, ability to promote HL-60 cell differentiation
Method: Serial dilutions were prepared so that a range of drug concentrations could be tested without changing the final concentration of ethanol (≦0.2%) present in the cell cultures.
Human promyelocytic leukemia (HL60) cells were grown in RPMI-1640 medium containing 10% fetal bovine serus. The cells were incubated at 37° C. in the presence of 5% CO2.
HL60 cells were plated at 1.2×10^5 cells/ml. Eighteen hours after plating, cells in duplicate were treated with drug. Four days later, the cells were harvested and a nitro blue tetrazolium reduction assay was performed (Collins et al., 1979; J. Ex. Med. 149:969-974). The percentage of differentiated cells was determined by counting a total of 200 cells and recording the number that contained intracellular black-blue formazan deposits Verification of differentiation to monocytic cells was determined by measuring phagocytic activity (data not shown).

[2] = molecular target: T1, full-length recombinant rat vitamin D receptor (Rattus norvegicus, UniProt P13053); settings: for Ki: read-out: Ki, ability to compete with [3H]-1,25(OH)2D3 for binding to the vitamin D receptor, full-length recombinant rat VDR
T1 sequence (P13053 1-423): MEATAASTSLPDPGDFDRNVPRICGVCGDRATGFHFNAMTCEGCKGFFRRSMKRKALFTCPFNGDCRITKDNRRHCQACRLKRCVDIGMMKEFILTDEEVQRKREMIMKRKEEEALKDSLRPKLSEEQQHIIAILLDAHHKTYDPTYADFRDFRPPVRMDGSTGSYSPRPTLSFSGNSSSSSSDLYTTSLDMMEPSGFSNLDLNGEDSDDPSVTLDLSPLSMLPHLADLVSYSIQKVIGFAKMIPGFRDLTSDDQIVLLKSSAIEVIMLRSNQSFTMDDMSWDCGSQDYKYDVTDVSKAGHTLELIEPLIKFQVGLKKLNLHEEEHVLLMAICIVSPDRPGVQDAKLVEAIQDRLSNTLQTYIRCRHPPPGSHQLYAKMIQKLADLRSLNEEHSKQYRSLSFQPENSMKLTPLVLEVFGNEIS
Method: (§2) Full-length recombinant rat receptor was expressed in E. coli BL21 (DE3) Codon Plus RIL cells and purified to homogeneity using two different column chromatography systems. The first system was a nickel affinity resin that utilizes the C-terminal histidine tag on this protein. The protein that was eluted from this resin was further purified using ion exchange chromatography (S-Sepharose Fast Flow). Aliquots of the purified protein were quick frozen in liquid nitrogen and stored at −80° C. until use. For use in binding assays, the protein was diluted in TEDK50 (50 mM Tris, 1.5 mM EDTA, pH 7.4, 5 mM DTT, 150 mM KCl) with 0.1% Chaps detergent. The receptor protein and ligand concentration was optimized such that no more than 20% of the added radiolabeled ligand as bound to the receptor.
(§3) Radiolabeled and unlabeled ligands were added to 100 mcl of the diluted protein at a final ethanol concentration of ≦10%; mixed and incubated overnight on ice to reach binding equilibrium. The following day, 100 mcl of hydroxylapaptite slurry (50%) was added to each tube and mixed at 10-minute intervals for 30 minutes. The hydroxylapaptite was collected by centrifugation and then washed three times with Tris-EDTA buffer (50 mM Tris, 1.5 mM EDTA, pH 7.4) containing 0.5% Titron X-100. After the final wash, the pellets were transferred to scintillation vials containing 4 ml of Biosafe II scintillation cocktail, mixed and placed in a scintillation counter. Total binding was determined from the tubes containing only radiolabeled ligand.

[3] = system: 24-hydroxylase (24Ohase) gene promoter; assay: In vitro transcription assay in ROS 17/2.8 (bone) cells, luciferase reporter; format: cell-based; settings: for EC50: ROS 17/2.8 cells, 24-hydroxylase promoter-luciferase, read-out: EC50, transcriptional activity in bone cells; for logs less transcriptional activity than 1α,25-dihydroxyvitamin D3 in bone cells / times less transcriptional activity than 1α,25-dihydroxyvitamin D3 in bone cells: less than 1,25(OH)2D3
Method: Transcription activity was measured in ROS 17/2.8 (bone) cells that were stably transfected with a 24-hydroxylase (24Ohase) gene promoter upstream of a luciferase reporter gene (Arbour et al., 1998). Cells were given a range of doses. Sixteen hours after dosing the cells were harvested and luciferase activities were measured using a luminometer.
RLU=relative luciferase units.

vitamin D-deficient rats [4] = assay: Intestinal calcium transport (everted gut sac method); format: in vivo, Sprague-Dawley rats
Method: (§1) Male, weanling Sprague-Dawley rats were placed on Diet 11 (0.47% Ca) diet +AEK for one week followed by Diet 11 (0.02% Ca) +AEK for 3 weeks. The rats were then switched to a diet containing 0.47% Ca for one week followed by two, weeks on a diet containing 0.02% Ca. Dose administration began during the last week on 0.02% calcium diet. Four consecutive ip doses were given approximately 24 hours apart. Twenty-four hours after the last dose, blood was collected from the severed neck and the concentration of serum calcium determined as a measure of bone calcium mobilization. The first 10 cm of the intestine was also collected for intestinal calcium transport analysis using the everted gut sac method.

[5] = molecular target: T1, full-length recombinant rat vitamin D receptor; assay: biochemical; settings: ability to compete with [3H]-1,25(OH)2D3 for binding to the vitamin D receptor, full-length recombinant rat VDR
Method: as §2, §3

vitamin D-deficient rats [6] = assay: Bone calcium mobilization (serum calcium); format: in vivo, Sprague-Dawley rats; settings: rats on low calcium diet (0.02%); for mobilization of bone calcium at 7,020 pmol/day: 7,020 pmol/day for 4 consecutive days; for mobilization of bone calcium at 35,100 pmol/day: 35,100 pmol/day for 4 consecutive days; for activity in mobilizing calcium from bone / serum calcium levels: all dosages tested; for times less potent than 1,25(OH)2D3 in bone (bone calcium mobilization): 4 ip doses
Method: as §1

[7] = compared with 1,25(OH)2D3 at 780 pmol/day
[8] = rats on low calcium diet (0.02%), 4 ip doses
[9] = rats on low calcium diet (0.02%)

Compound | EC50 [1] [nM] | binding to the receptor as compared to 1,25(OH)2D3 [2] | EC50 [3] [nM] | logs less transcriptional activity than 1α,25-dihydroxyvitamin D3 in bone cells [3] | intestinal calcium transport at 7,020 pmol/day (vitamin D-deficient rats [4]; [7]) | intestinal calcium transport at 35,100 pmol/day (vitamin D-deficient rats [4]; [7]) | Ki [5] [nM] | mobilization of bone calcium at 7,020 pmol/day (vitamin D-deficient rats [6]) | mobilization of bone calcium at 35,100 pmol/day (vitamin D-deficient rats [6]) | activity in mobilizing calcium from bone / serum calcium levels (vitamin D-deficient rats [6]) | times less potent than 1,25(OH)2D3 in bone (bone calcium mobilization) (vitamin D-deficient rats [6]) | Ki [2] [nM] | times less transcriptional activity than 1α,25-dihydroxyvitamin D3 in bone cells [3] | other results
CC(O)CCCC(C)C1CCC2C(=CC=C3CC(O)C(C)C(O)C3)CCCC21C (single isomer, unassigned) [NC-2] | 5 | bound equally well; also recorded: equivalent | 0.6 | about one-half | some intestinal calcium transport activity, but still not to the same extent as 1,25(OH)2D3 | some intestinal calcium transport activity, but still not to the same extent as 1,25(OH)2D3 | 0.2 | did not result, in mobilization of bone calcium | without any substantial effect | little, if any, activity | more than 50 times | – | – | HL-60 differentiation potency as compared to 1,25(OH)2D3 [1]: little difference; times more potent than 1,25(OH)2D3 on HL-60 differentiation ([1]; more potent than 1,25(OH)2D3): 4 times; transcriptional activity in bone cells as compared to 1α,25-dihydroxyvitamin D3 [3]: slightly less transcriptional activity; logs less potent than 1,25(OH)2D3 in the intestine (vitamin D-deficient rats [4]; [8]): approximately 5 log
CC1[C@H](O)CC(=C/C=C2\CCC[C@]3(C)[C@@H]([C@@H](C)CCC[C@H](C)O)CC[C@@H]23)C[C@H]1O (stereo partly drawn) [IB-1, (20S,25S)-2β-methyl-19,26-dinor-1α,25-dihydroxyvitamin D3] | 20 | – | 7 | about 3 log | – | some intestinal calcium transport activity; but still not to the same extent as 1,25(OH)2D3 | – | – | did not result in mobilization of bone calcium | little, if any, activity | more than 50 times | 0.8 | approximately 30 times | logs less potent than 1,25(OH)2D3 on HL-60 differentiation [1]: one and about one; times less potent than 1,25(OH)2D3 on HL-60 differentiation [1]: 10 times
CC(O)CCCC(C)C1CCC2C(=CC=C3CC(O)C(C)C(O)C3)CCCC21C (single isomer, unassigned) [FD-1] | 6 | – | 1 | about 1 log | – | – | 0.4 | – | – | little, if any, activity | more than 40 times | – | about 10 times | intestinal calcium transport at 21,060 pmol/day (vitamin D-deficient rats [4]; 21,060 pmol/day for 4 consecutive days, compared with 1,25(OH)2D3 at 780 pmol/day): some intestinal calcium transport, but hot to the same extent as 1,25(OH)2D3; intestinal calcium transport activity (vitamin D-deficient rats [4]; [9]): some, but very little, intestinal calcium transport activity; times less potent than 1,25(OH)2D3 in stimulating calcium transport in the gut (vitamin D-deficient rats [4]; [8]): approximately 40 times; mobilization of bone calcium at 21,060 pmol/day (vitamin D-deficient rats [6]; 21,060 pmol/day for 4 consecutive days): did not result in mobilization of bone calcium
CC(O)CCCC(C)C1CCC2C(=CC=C3CC(O)C(C)C(O)C3)CCCC21C (single isomer, unassigned) [TA-2] | 0.5 | bound equally well; also recorded: equivalent | 0.08 | – | some intestinal calcium transport activity, but still not to the same extent as 1,25(OH)2D3 | – | – | did not result in mobilization of bone calcium | without any substantial effect | little, if any, activity | more than 50 times | – | – | times more transcriptional activity than 1α,25-dihydroxyvitamin D3 in bone cells ([3]; more than 1,25(OH)2D3): about 4 times; logs less potent than 1,25(OH)2D3 in the intestine (vitamin D-deficient rats [4]; [8]): approximately 1 log and one
CC1[C@H](O)CC(=C/C=C2\CCC[C@]3(C)[C@@H]([C@H](C)CCC[C@@H](C)O)CC[C@@H]23)C[C@H]1O (stereo partly drawn) [DW-1, (20R,25R)-2β-methyl-19,26-dinor-1α,25-dihydroxyvitamin D3] | 60 | – | 20 | about 2 log | – | some intestinal calcium transport activity, but still not to the same extent as 1,25(OH)2D3 | – | did not result in mobilization of bone calcium | without any substantial effect | little, if any, activity | more than 50 times | 1 | ~20 times | times less potent than 1,25(OH)2D3 on HL-60 differentiation [1]: about 30 times
C=C1/C(=C\C=C2/CCC[C@]3(C)[C@@H]([C@H](C)CCCC(C)(C)O)CC[C@@H]23)C[C@@H](O)C[C@@H]1O [1,25(OH)2D3, 1α,25-dihydroxyvitamin D3, reference compound] | 2 | – | 0.2 | – | – | – | – | – | – | increased serum calcium levels | – | – | – | intestinal calcium transport activity (vitamin D-deficient rats [4]; [9]): significant activity
CC1[C@H](O)CC(=C/C=C2\CCC[C@]3(C)[C@@H]([C@H](C)CCC[C@@H](C)O)CC[C@@H]23)C[C@H]1O (stereo partly drawn) [MY-2, (20R,25R)-2α-methyl-19,26-dinor-1α,25-dihydroxyvitamin D3] | 2 | bound equally well; also recorded: equivalent | 0.4 | – | some intestinal calcium transport activity, but still not to the same extent as 1,25(OH)2D3 | – | – | did not result in mobilization of bone calcium | without any substantial effect | little, if any, activity | more than 50 times | 0.2 | – | HL-60 differentiation potency as compared to 1,25(OH)2D3 [1]: as potent as 1,25(OH)2D3; also recorded: little difference; transcriptional activity in bone cells as compared to 1α,25-dihydroxyvitamin D3 [3]: equivalent to 1α,25-dihydroxyvitamin D3; also recorded: about the same transcriptional activity
CC(O)CCCC(C)C1CCC2C(=CC=C3CC(O)C(C)C(O)C3)CCCC21C (single isomer, unassigned) [TH-1] | 70 | – | – | about 2 log | – | some intestinal calcium transport activity, but still not to the same extent as 1,25(OH)D3 | 5 | – | did not result in mobilization of bone calcium | little, if any, activity | more than 50 times | – | ~20 times | logs less potent than 1,25(OH)2D3 on HL-60 differentiation [1]: 3 log
